Structures can show the parent of a compound that is named as a salt.
How the values were obtained:
KynR = molecular target: T1, KynR (Cupriavidus necator, UniProt Q0K7Y0); assay: RFP reporter dose-response in C. necator H16, Hill fit; format: cell-based; details: read-out: Km^b
T1 construct: gene H16_A2813; native full-length gene, divergent to operon starting at H16_RS14030; reporter plasmid pEH136 (plasmid assigned by list order)
T1 sequence (Q0K7Y0 1-160): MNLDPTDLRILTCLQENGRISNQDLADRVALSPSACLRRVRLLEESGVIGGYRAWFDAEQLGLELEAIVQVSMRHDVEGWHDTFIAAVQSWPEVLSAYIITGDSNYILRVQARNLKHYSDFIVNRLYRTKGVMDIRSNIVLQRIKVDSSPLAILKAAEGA

BenM [1] = assay: cells; design: species or system Cupriavidus necator H16; RFP reporter induction by transcription factor biosensor, fluorescence normalised to cell density, relative to primary effector; details: 6 h; relative to primary effector, C. necator, MM; read-out: % activation
Procedure: (§1) To screen the 441 combinations of inducer and biosensor for cross-reactivity, we employed an automated platform (see Methods section). Strains of C. necator harbouring the inducible systems were grown in MM and transferred to a 96-well microtiter plate format. After the inducers had been extracellularly added, cells were cultured for 6 h before RFP fluorescence and cell density were measured. […] The remaining six inducible systems were activated by one or more metabolites other than their cognate inducers. This cross-reactivity may be the result of either structural resemblance, a metabolic relationship or a combination thereof. For example, L-phenylalanine is converted into L-tyrosine by the phenylalanine 4-monooxygenase PhhA (H16_RS18365). Therefore, activation of the L-tyrosine-inducible system by L-phenylalanine is more likely to be due to biological conversion of the added compound into the primary effector rather than direct interaction of L-phenylalanine with HpdA. However, since the difference between the two molecules lies in a singly hydroxyl-group, an induction by structural resemblance cannot be entirely ruled out. The same applies to phenylglyoxylate that activated the benzoate-inducible system. Phenylglyoxylate is converted by C. necator into benzoate via a two-step reaction with benzaldehyde as intermediate compound. During the first reaction, carbon dioxide is generated that may also explain induction of the formate-inducible system by the structurally dissimilar phenylglyoxylate. Since carbon dioxide can subsequently be converted into formate, it is rational to postulate that the FdsR/PH16_RS03165-inducible system is activated in this case by its primary inducer. In addition to phenylglyoxylate, the benzoate-inducible system was activated by extracellular supplementation with cyclohexanecarboxylate and cumate. Cyclohexanecarboxylate shares both a structural resemblance to benzoate and downstream  Fig. 6 Orthogonality of inducible systems. a Cross-reactivity of a set of 21 inducible systems and their corresponding primary inducers. The heat map illustrates induction of reporter gene expression in the presence of the metabolite (in %) relative to the induction mediated by the corresponding primary effector. Measurements were taken 6 h after supplementation with inducer at a final concentration of 5 mM. Data are mean, n = 4. Source data are provided as a Source Data file. b Fluorescence output of individual cells of C. necator carrying pEH263 measured by flow cytometry. The vector pEH263 contains the 3,4-dihydroxybenzoate- and [compound left out]-inducible systems controlling expression of rfp and egfp, respectively. Fluorescence was determined in the absence of inducer (orange), in the presence of 3,4-dihydroxybenzoate (blue), [compound left out] (green), and both 3,4-dihydroxybenzoate and [compound left out] (purple). Effector concentrations correspond to their respective Km’s and fluorescence was measured 2 h after inducer addition.

BenM [2] = molecular target: T2, BenM (Cupriavidus necator, UniProt Q0KAA5); assay: cell-based; design: RFP reporter induction by transcription factor biosensor, single time-point fluorescence in LB, relative to primary effector; details: Escherichia coli TOP10; relative to primary effector, E. coli, LB; read-out: % activation
T2 construct: native full-length gene, divergent to operon starting at H16_RS09790; reporter plasmid pEH148 (plasmid assigned by list order)
T2 sequence (Q0KAA5 1-305): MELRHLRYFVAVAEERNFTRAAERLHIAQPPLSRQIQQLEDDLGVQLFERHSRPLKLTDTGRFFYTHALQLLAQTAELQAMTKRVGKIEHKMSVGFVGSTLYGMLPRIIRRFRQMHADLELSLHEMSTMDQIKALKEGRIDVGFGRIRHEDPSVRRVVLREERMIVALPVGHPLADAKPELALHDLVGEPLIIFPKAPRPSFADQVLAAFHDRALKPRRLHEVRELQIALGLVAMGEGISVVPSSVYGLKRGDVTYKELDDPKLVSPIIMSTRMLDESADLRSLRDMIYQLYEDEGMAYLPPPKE
Source text: (§2) TRs often recognise molecules that are structurally similar to their primary effectors. For example, isopropyl β-D-1-thiogalactopyranoside is a commonly used structural analogue of allolactose, employed to control the expression of genes regulated by LacI. Here, the TR’s specificity was investigated to identify previously uncharacterised ligand–TR interactions and consequently extend the biosensor application to the detection of structurally similar or metabolically related compounds. To do so, the library of 21 native and heterologous inducible systems was screened against 46 compounds using an integrated robotic platform, as described in the previous section. […] Similarly to the former orthogonality screen (Fig. 6a), it should be noted that activation of reporter gene expression by the extracellularly added compounds likely indicates a structural resemblance to the primary ligand, a metabolic relationship or a combination thereof. To shed light on their cause of system activation, cultures of E. coli carrying the functional formate-, [compound left out]-, benzoate-, 3,4-dihydroxybenzoate-, acetoin- and β-alanine-inducible systems, active in this host organism, were evaluated for the same cross-reactivity (Supplementary Table 5).  Fig. 3 C. necator native systems mediate controllable gene expression in E. coli and P. putida. Single time-point fluorescence measurements of a, b E. coli and c, d P. putida carrying the C. necator-inducible gene expression systems composed of TR and promoter a, c or ‘promoter only’ version b, d. The plasmids harbouring the individual system– or promoter–reporter gene constructs are indicated. RFP fluorescence output was determined in the absence of inducer (light purple and light blue) and 6 h after extracellular supplementation with the corresponding primary effector to a final concentration of 5 mM (dark purple and dark blue). Data are mean ± SD, n = 3, *p < 0.05, **p < 0.01, ***p ≤ 0.001, ****p ≤ 0.0001, unpaired two-tailed t-test. Source data are provided as a Source Data file. All strains used in this study are listed in Supplementary Table 7. E. coli TOP10 (Life Technologies) was used for cloning and plasmid propagation. For single time-point fluorescence measurements and flow cytometric analyses, bacterial strains were propagated in Luria-Bertani (LB) medium. To determine the dose–responses and to evaluate inducer TR cross-reactivity, C. necator was cultivated in MM containing 1 g/L NH4Cl, 9 g/L Na2HPO4·12H2O, 1.5 g/L KH2PO4, 0.2 g/L MgSO4·7H2O, 0.02 g/L CaCl2·2H2O and 0.0012 g/L (NH4)5[Fe(C6H4O7)2] with 1 mL/L trace element solution SL7 (1.3 mL/L 25% (w/v) HCl, 0.07 g/L ZnCl2, 0.1 g/L MnCl2·4H2O, 0.062 g/L H3BO3, 0.190 g/L CoCl2·6H2O, 0.017 g/L CuCl2·2H2O, 0.024 g/L NiCl2·6H2O and 0.036 g/L Na2MoO4·2H2O) supplemented with 0.4% (w/v) sodium gluconate. If required, antibiotics were added to the growth medium at the following concentrations: 12.5 µg/mL tetracycline or 25 µg/mL chloramphenicol for E. coli, 50 µg/mL chloramphenicol for C. necator and 25 µg/mL tetracycline for P. putida. For solid media preparation, 15 g/L agar was added.

HpdR [3] = assay: cells; design: species or system Cupriavidus necator H16; RFP reporter induction by transcription factor biosensor, fluorescence normalised to cell density, relative to primary effector; details: 6 h; relative to primary effector, C. necator, MM; read-out: % activation
Procedure: as §1

OapR = assay: cells; design: species or system Cupriavidus necator H16; RFP reporter induction by transcription factor biosensor, fluorescence normalised to cell density, relative to primary effector; details: 6 h; relative to primary effector, C. necator, MM; read-out: % activation
Procedure: as §1

PcaQ = molecular target: T3, PcaQ (Cupriavidus necator, UniProt Q0JYV0); assay: RFP reporter dose-response in C. necator H16, Hill fit; format: cell-based; details: read-out: Km^b
T3 construct: native full-length gene, divergent to operon starting at H16_RS30145; reporter plasmid pEH161 (plasmid assigned by list order)
T3 sequence (Q0JYV0 1-317): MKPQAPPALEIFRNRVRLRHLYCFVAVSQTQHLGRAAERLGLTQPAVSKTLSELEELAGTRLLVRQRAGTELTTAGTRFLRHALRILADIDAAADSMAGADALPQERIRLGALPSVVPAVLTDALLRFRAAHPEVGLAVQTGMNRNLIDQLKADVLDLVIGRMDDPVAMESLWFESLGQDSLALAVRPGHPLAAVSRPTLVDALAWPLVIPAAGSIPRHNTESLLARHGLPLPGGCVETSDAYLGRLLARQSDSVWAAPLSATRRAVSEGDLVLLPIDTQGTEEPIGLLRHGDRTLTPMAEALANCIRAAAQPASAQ

HpdR [4] = system: T4, HpdR; assay: as above; format: cell-based, Cupriavidus necator; details: inducer concentration for half-maximal activation; extracellular inducer, minimal medium, 30 °C, 80 min; whole cells with chromosomal regulator copy; read-out: Km^b
T4 construct: native full-length gene, divergent to operon starting at H16_RS18295; reporter plasmid pEH010 (plasmid assigned by exclusion)
Source text: RFP reporter dose-response in C. necator H16, Hill fit on HpdR

FdsR = FdsR (Cupriavidus necator, UniProt Q0KDY4); assay: cell-based
Chain of FdsR (Q0KDY4 1-364): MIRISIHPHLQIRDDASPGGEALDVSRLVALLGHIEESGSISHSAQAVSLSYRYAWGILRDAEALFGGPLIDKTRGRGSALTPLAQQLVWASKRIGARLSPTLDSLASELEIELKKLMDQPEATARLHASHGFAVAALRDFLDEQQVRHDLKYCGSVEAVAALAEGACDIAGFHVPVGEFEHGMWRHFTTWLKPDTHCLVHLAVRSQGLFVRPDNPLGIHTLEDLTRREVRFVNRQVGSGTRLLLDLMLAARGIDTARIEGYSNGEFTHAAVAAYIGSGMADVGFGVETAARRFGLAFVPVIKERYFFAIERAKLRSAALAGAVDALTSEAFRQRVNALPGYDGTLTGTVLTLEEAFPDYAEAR
Source text: RFP reporter dose-response in C. necator H16, Hill fit on FdsR

AcoR [5] = assay: cells; design: species or system Cupriavidus necator H16; RFP reporter induction by transcription factor biosensor, fluorescence normalised to cell density, relative to primary effector; details: 6 h; relative to primary effector, C. necator, MM; read-out: % activation
Procedure: as §1

AcoR [6] = molecular target: T5, AcoR (Cupriavidus necator, UniProt P28614); assay: cell-based; design: RFP reporter induction by transcription factor biosensor, single time-point fluorescence in LB, relative to primary effector; details: Escherichia coli TOP10; relative to primary effector, E. coli, LB; read-out: % activation
T5 construct: native full-length gene, divergent to operon starting at H16_RS19445; reporter plasmid pEH052 (plasmid assigned by list order)
T5 sequence (P28614 1-668): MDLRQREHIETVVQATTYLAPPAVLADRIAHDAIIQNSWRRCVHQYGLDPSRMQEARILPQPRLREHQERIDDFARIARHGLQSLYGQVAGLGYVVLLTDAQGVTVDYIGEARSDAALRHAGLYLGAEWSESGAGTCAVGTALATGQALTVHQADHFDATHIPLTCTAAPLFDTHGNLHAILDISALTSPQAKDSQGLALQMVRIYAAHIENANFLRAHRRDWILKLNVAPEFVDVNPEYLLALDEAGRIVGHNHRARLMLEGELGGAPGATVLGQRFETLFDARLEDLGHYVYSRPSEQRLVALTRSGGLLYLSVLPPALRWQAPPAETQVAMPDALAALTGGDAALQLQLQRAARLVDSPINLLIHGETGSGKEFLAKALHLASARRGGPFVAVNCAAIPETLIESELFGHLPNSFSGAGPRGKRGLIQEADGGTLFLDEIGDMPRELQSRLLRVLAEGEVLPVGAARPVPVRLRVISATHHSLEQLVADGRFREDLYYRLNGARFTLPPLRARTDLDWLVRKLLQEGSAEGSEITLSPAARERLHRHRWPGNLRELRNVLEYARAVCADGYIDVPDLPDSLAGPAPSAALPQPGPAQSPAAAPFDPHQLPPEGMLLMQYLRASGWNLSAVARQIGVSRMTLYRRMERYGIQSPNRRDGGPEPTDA
Source text: as §2

PhhR = molecular target: T6, PhhR (Cupriavidus necator, UniProt Q0K5I4); assay: RFP reporter dose-response in C. necator H16, Hill fit; format: cell-based; details: read-out: Km^b
T6 construct: native full-length gene, divergent to phhA (H16_RS18365); reporter plasmid pEH137 (plasmid assigned by list order)
T6 sequence (Q0K5I4 1-234): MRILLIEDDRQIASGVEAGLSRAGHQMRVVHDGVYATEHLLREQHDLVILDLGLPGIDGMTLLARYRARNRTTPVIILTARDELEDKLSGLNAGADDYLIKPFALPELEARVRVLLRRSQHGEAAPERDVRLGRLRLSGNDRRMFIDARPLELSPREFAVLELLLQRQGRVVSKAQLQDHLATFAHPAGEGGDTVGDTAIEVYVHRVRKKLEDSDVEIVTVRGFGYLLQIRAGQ

HpdA [7] = assay: cells; design: species or system Cupriavidus necator H16; RFP reporter induction by transcription factor biosensor, fluorescence normalised to cell density, relative to primary effector; details: 6 h; relative to primary effector, C. necator, MM; read-out: % activation
Procedure: as §1

XdhR = system: T7, XdhR; assay: RFP reporter dose-response in C. necator H16, Hill fit; format: cell-based, Cupriavidus necator; details: inducer concentration for half-maximal activation; extracellular inducer, minimal medium, 30 °C, 80 min; whole cells with chromosomal regulator copy; read-out: Km^b
T7 construct: native full-length gene, divergent to operon starting at H16_RS05055; reporter plasmid pEH154 (plasmid assigned by list order)

HpdA [8] = system: T8, HpdA; assay: as above; format: cell-based, Cupriavidus necator; details: inducer concentration for half-maximal activation; extracellular inducer, minimal medium, 30 °C, 80 min; whole cells with chromosomal regulator copy; read-out: Km^b
T8 construct: native full-length regulator gene, divergent to operon starting at H16_RS24175; reporter plasmid pEH158 (plasmid assigned by list order)
Source text: RFP reporter dose-response in C. necator H16, Hill fit on HpdA

With `Nc1ccccc1C(=O)C[C@H](N)C(=O)O` [compound 9, L-kynurenine] the EC50 (KynR) was 2.64 ± 0.18 µM.

`O=C(O)C1CCCCC1` [compound 14, Cyclohexanecarboxylate] was tested, and the activity at 5000 µM (BenM [1]) was 110% and the activity at 5000 µM (BenM [2]) was 4.3%.

For `C=CC(=O)O` [Acrylate], the activity at 5000 µM (HpdR [3]) was 113% and the activity at 5000 µM (OapR) was 68%.

Compound `O=C(O)c1ccc(O)c(O)c1` [compound 16, 3,4-Dihydroxybenzoate] has an EC50 (PcaQ) of 8.63 ± 0.4 µM.

For `O=C(O)CCO` [compound 10, 3-Hydroxypropanoate], the EC50 (HpdR [4]) was 13.2 ± 1.9 µM.

For `O=CO` [compound 2, Formate], the EC50 (FdsR) was 130 ± 7 µM.

`CC(C)c1ccc(C(=O)O)cc1` [cumate] gave an activity at 5000 µM (AcoR [5]) of 18%, an activity at 5000 µM (BenM [1]) of 100% and an activity at 5000 µM (AcoR [6]) of 0%. For the same compound, the activity at 5000 µM (BenM [2]) was 2%.

For `N[C@@H](Cc1ccccc1)C(=O)O` [compound 11, L-phenylalanine], the EC50 (PhhR) was 16.9 ± 2.2 µM and the activity at 5000 µM (HpdA [7]) was 77%.

Compound `O=c1[nH]c(=O)c2[nH]cnc2[nH]1` [compound 3, Xanthine] has an EC50 (XdhR) of 13 ± 1.4 µM.

Work on `N[C@@H](Cc1ccc(O)cc1)C(=O)O` [compound 13, L-tyrosine] yielded an EC50 (HpdA [8]) of 9.9 ± 2.2 µM.

From publication PMC7057948, “A genome-wide approach for identification and characterisation of metabolite-inducible systems” (Nature Communications, 2020)
